Test results from ChEMBL document CHEMBL1122370 (J Med Chem, 1983).

Columns and labels:
L1210 [1] = assay: In vivo antitumor activity against L1210 leukemia in 5 mice measured as median survival range at 40 mg/kg; Value ranges from(22-27); format: functional, Mus musculus
Mus musculus [2] = assay: (§1) Average weight of the mouse after treating with 20 mg/kg dose for 7 days.; format: functional; parameters: unit not given beside the values
L1210 [3] = assay: In vivo antitumor activity against L1210 leukemia in 17 mice measured as T/C values; T/C = 17/9; format: functional, Mus musculus
L1210 [4] = assay: In vivo antitumor activity against L1210 leukemia in 5 mice measured as median survival range at 10 mg/kg; Value ranges from(13-20); format: functional, Mus musculus
L1210 [5] = assay: In vivo anti tumor activity against L1210 leukemia in 5 mice measured as Increased life span at 10 mg/kg.; format: functional; details: Mus musculus
Mus musculus [6] = assay: Average weight of the mouse after treating with 40 mg/kg dose for 1 day.; format: functional; parameters: unit not given here
Mus musculus [7] = assay: Average weight of the mouse after treating with 10 mg/kg dose for 7 days.; format: functional
Mus musculus [8] = assay: Average weight of the mouse after treating with 20 mg/kg dose for 1 day.; format: functional; parameters: unit not given here
L1210 [9] = assay: In vivo antitumor activity against L1210 leukemia in 24 mice measured as T/C value; T/C = 24/9; format: functional, Mus musculus
L1210 [10] = assay: In vivo antitumor activity against L1210 leukemia in 5 mice measured as median survival range at 20 mg/kg; Value ranges from(13-22); format: functional, Mus musculus
L1210 [11] = assay: In vivo antitumor activity against L1210 leukemia in 5 mice measured as Increased life span at 20 mg/kg.; format: functional; details: Mus musculus
Mus musculus [12] = assay: Average weight of the mouse after treating with 10 mg/kg dose for 1 day.; format: functional; parameters: unit not given here
L1210 [13] = assay: In vivo antitumor activity against L1210 leukemia in 18 mice measured as T/C values; T/C = 18/9; format: functional, Mus musculus
Mus musculus [14] = assay: Average weight of the mouse after treating with 40 mg/kg dose for 7 days.; format: functional; parameters: unit not given beside the values
L1210 [15] = assay: In vivo antitumor activity against L1210 leukemia in 5 mice measured as Increased life span at 40 mg/kg.; format: functional; details: Mus musculus
L1210 [16] = assay: In vivo antitumor activity against L1210 leukemia in 5 mice measured as median survival range at 10 mg/kg; Value ranges from(15-21); format: functional, Mus musculus
L1210 [17] = assay: In vivo antitumor activity against L1210 leukemia in 5 mice measured as median survival range at 20 mg/kg; Value ranges from(17-25); format: functional, Mus musculus
L1210 [18] = assay: In vivo antitumor activity against L1210 leukemia in 15 mice measured as T/C values; T/C = 15/9; format: functional, Mus musculus
Mus musculus [19] = assay: as §1; format: functional
L1210 [20] = assay: In vivo antitumor activity against L1210 leukemia in 5 mice measured as Increased life span at 10 mg/kg.; format: functional; details: Mus musculus
Mus musculus [21] = assay: Average weight change in mouse after treating with 40 mg/kg dose for 7 days.; format: functional
L1210 [22] = assay: In vivo antitumor activity against L1210 leukemia in 5 mice measured as median survival range at 20 mg/kg; Value ranges from (11-15); format: functional, Mus musculus
L1210 [23] = assay: In vivo antitumor activity against L1210 leukemia in 5 mice measured as median survival range at 40 mg/kg; Value ranges from (12-20); format: functional, Mus musculus
Mus musculus [24] = assay: Average weight change in mouse after treating with 20 mg/kg dose for 7 days.; format: functional; parameters: unit not given beside the values
L1210 [25] = assay: In vivo antitumor activity against L1210 leukemia in 13 mice measured as T/C values; T/C = 13/9; format: functional, Mus musculus
L1210 [26] = assay: In vivo antitumor activity against L1210 leukemia in 14 mice measured as T/C values; T/C = 14/9; format: functional, Mus musculus

`CN(Cc1cnc2nc(N)nc(N)c2n1)c1ccc(C(=O)NC(CCC(=O)OCc2cc3c(cc2Cl)OCO3)C(=O)OCc2cc3c(cc2Cl)OCO3)cc1` (stereo not given) was tested, and the Range (L1210 [1]) was 27, the Weight change (Mus musculus [2]) was 1 and the T/C (L1210 [3]) was 11. It also gave a Range (L1210 [4]) of 20, an ILS at 10 mg/kg (L1210 [5]) of 88% and an Average weight (Mus musculus [6]) of 21.4. For the same molecule, the Weight change (Mus musculus [7]) was 2.1, the Average weight (Mus musculus [8]) was 22.2 and the T/C (L1210 [9]) was 9. For the same molecule, the Range (L1210 [10]) was 22, the ILS at 20 mg/kg (L1210 [11]) was 100% and the Average weight (Mus musculus [12]) was 22.5. For the same molecule, the T/C (L1210 [13]) was 9, the Weight change (Mus musculus [14]) was 0.2 and the ILS at 40 mg/kg (L1210 [15]) was 167%.

`CN(Cc1cnc2nc(N)nc(N)c2n1)c1ccc(C(=O)NC(CCC(=O)OCc2c(Cl)cccc2Cl)C(=O)OCc2c(Cl)cccc2Cl)cc1` (stereo not given) showed a Range (L1210 [16]) of 21, a Range (L1210 [17]) of 25 and a Weight change (Mus musculus [7]) of 1.4. For the same molecule, the Average weight (Mus musculus [8]) was 22.4, the T/C (L1210 [18]) was 9 and the Weight change (Mus musculus [19]) was 0.8. The T/C (L1210 [9]) was 9, the ILS at 20 mg/kg (L1210 [11]) was 167% and the ILS at 10 mg/kg (L1210 [20]) was 66%. The Average weight (Mus musculus [12]) was 21.6.

In the case of `CCOCCOC(=O)CCC(NC(=O)c1ccc(N(C)Cc2cnc3nc(N)nc(N)c3n2)cc1)C(=O)OCCOCC` (stereo not given), the Weight change (Mus musculus [21]) is reported as 0.5, the Range (L1210 [22]) is reported as 15 and the Average weight (Mus musculus [6]) is reported as 23.1. It also gave an Average weight (Mus musculus [8]) of 22.6, a Range (L1210 [23]) of 20 and an ILS at 20 mg/kg (L1210 [11]) of 44%. The Weight change (Mus musculus [24]) was 1.5, the T/C (L1210 [25]) was 9 and the T/C (L1210 [26]) was 9. It also gave an ILS at 40 mg/kg (L1210 [15]) of 55%.
